Data set [1] has as its system human hair follicle dermal papilla cells (HDPs). Particulars: 100 nM. The method, then: C57BL/6 mice (male, five weeks old) were purchased from Orient Bio. In addition, the mice were raised with sufficient water and food. The animal experiment of the present disclosure was performed in accordance with the guidelines ([…]-2021 Jul. 18-1) of the Institutional Animal Care and Use Committee (IACUC) at Sungkyunkwan University. The HDP cells were cultured in a HDP growth medium under conditions of 37° C. and 5% CO2.
Cell proliferation analysis was performed in the presence or absence of dihydrotestosterone ([…]). […] The optical density was detected at 540 nm.

For data set [2], the system named is testosterone-induced androgenetic alopecia model. Briefly: testosterone-induced androgenetic alopecia model: hair growth, skin color score, hair type frequency, hair thickness. Format: in vivo, C57BL/6 mice. Particulars: on 1 week. The method, then: A testosterone-induced androgenetic alopecia model was fabricated using C57BL/6 mice. C57BL/6 mice (n=6) were divided into the following five groups: Normal group, Vehicle control group: Experimental group treated with 40 μg/kg/week testosterone, Experimental group treated with 5 mg/day Cs-EE (Connarus semidecandrus Jack. extract according to the present disclosure), Experimental group treated with 10 mg/day Cs-EE, and Positive control group: Experimental group treated with 5 mg/kg/day finasteride. To confirm a hair growth promoting effect of Cs-EE, the dorsal part of each mouse was treated with hair removal cream and shaved using an electric clipper twice; seven and three days before the first testosterone treatment.
40 μg/kg of testosterone was dissolved in sesame oil and then subcutaneously injected once a week four times. Thereafter, in the case of the Cs-EE-treated experimental group, Cs-EE diluted with PBS and DMSO (ratio of 1:1) was applied to the back part of the mouse once every day for three weeks. As the positive control group, 5 mg of finasteride was treated instead of Cs-EE of the present disclosure. Two days after the testosterone injection, mice in all experimental groups were euthanized. Thereafter, the dorsal hairs were isolated from each experimental group to confirm hair type frequency and hair thickness. […]

With `C[C@]12CCC(=O)C[C@@H]1CC[C@@H]1[C@@H]2CC[C@]2(C)[C@@H](O)CC[C@@H]12` [DHT, dihydrotestosterone], in data set [1], the “cytotoxicity to HDP cells (FIG. 9B)” value is “cytotoxic”.
`CC(C)(C)NC(=O)[C@H]1CC[C@H]2[C@@H]3CC[C@H]4NC(=O)C=C[C@]4(C)[C@H]3CC[C@]12C` [finasteride]: in data set [2], the “hair growth on shaved skin (FIG. 2)” value is recorded as “remained hairless”.

The values are drawn from patent US20260240931A1 (priority 2022, published 2026).
